Measured values reported in patent US8008506B2, “Indazole compounds” (priority 2008, dated 2011).
≈ marks a conversion by molar mass, not a printed value.

How the values were obtained:
[1] = tested on: rat under pentobarbital anesthesia; experiment: Test Example 9: effect on blood pressure and heart rate of rat under pentobarbital anesthesia; format: in vivo; conditions: 3 mg/kg intravenous, male SD rat, average value ± standard error of largest change
Description: Effect on Blood Pressure and Heart Rate of Rat Under Pentobarbital Anesthesia
The effect of intravenous bolus administration of a test compound exerted on the blood pressure and heart rate can be investigated by measuring the blood pressure and heart rate of a rat under pentobarbital anesthesia. 50 mg/kg of pentobarbital sodium (manufactured by Tokyo Chemical Industry Co., Ltd.) is intraperitoneally administered to a male SD rat (supplied by Japan SLC, Inc.) to induce anesthesia, and then 25 mg/kg of pentobarbital sodium is subcutaneously administered to maintain anesthesia. The left femoral vein is exposed and detached, and then a polyethylene tube SP10 (connected to a three-way stopcock via a ¼ vein needle) filled with physiological saline is inserted and placed in the vein.
The inner side of the left femur is incised, and the femoral artery is exposed and detached. A polyethylene tube (SP31, connected to a three-way stopcock via a Terumo injection needle 22G) filled with heparized physiological saline is inserted in the artery, and is connected to a pressure transducer. The blood pressure is measured from the pressure transducer through a pressure amplifier (AP-641G, Nihon Koden Corp.). The heart rate is measured by the Heart Rate Counter (AT-601G, Nihon Koden Corp.), using the pulse wave of the blood pressure as the trigger. The blood pressure, mean blood pressure and heart rate are outputted to a recorder and recorded. Here, the mean blood pressure is recorded by a pressure amplifier (AP-641G) according to the formula: {diastolic blood pressure+(systolic blood pressure−diastolic blood pressure)/3 }.
Measurement of the blood pressure and heart rate is initiated, and it is checked that the respective values are almost constant. 3 mg/kg of the test compound is administered through the left femoral vein for 30 seconds. Specifically, 3 mg/mL of the test compound is rapidly administered at a dose volume of 1 mL/kg. The relative values of the values of average blood pressure and heart rate at each time point with respect to the same values obtained before the initiation of administration, are determined for each individual, and the average value±standard error of the relative values (%) obtainable when each parameter changes the most, is determined.

[2] = Test Example 12: solubility in physiological saline; format: physicochemical; conditions: saline or isotonic, thermodynamic from solid, 37° C., one hour, 1 mg/mL nominal
Description: A test compound is precisely weighed to 500 μg, and a hydrochloric acid buffer solution at pH 1.2 is added thereto to a concentration of 1 mg/mL. The solution is shaken at 37° C. for one hour. After the shaking, the entire amount of the solution is transferred into a filter tube, and the solution is filtered by centrifugation. The filtrate is analyzed by HPLC, and the solubility of the test compound is determined by dividing the peak area value of the filtrate by the peak area value of the standard solution.
Test on Solubility in Physiological Saline
The solubility of a test compound is determined by performing the same test as that performed in Test Example 11, except that the hydrochloric acid buffer solution at pH 1.2 is changed to physiological saline.

[3] = target: T1, human β2 adrenergic receptor (Homo sapiens, UniProt P07550); experiment: Test Example 3-B: human β2 adrenergic receptor agonist activity (method of Test Example 1-B); format: cell-based; conditions: for β2 receptor EC50: Table 2, Test Example 3-B; for Emax: read-out: β2 receptor I.A.
T1 construct: expressed in transfected cells; host or cells: CHO (Chinese Hamster Ovary) cells, pcDNA3
Description: [Worded in the source for another target; this target is reported under the same test.] The measurement of human β3 adrenergic receptor agonist activity is carried out using CHO (Chinese Hamster Ovary) cells transfected with pcDNA3 (manufactured by Invitrogen, Inc.) to which human β3 gene has been inserted. […] This human β3 cDNA fragment is used as a probe, and the full length human β3 gene is obtained from a human genomic library (manufactured by Clontech Laboratories, Inc.). The above cells are cultured in Ham's F-12 medium containing 10% fetal bovine serum and 400 μg/ml geneticin (manufactured by Invitrogen, Inc.). These cells are seeded on a 96-well plate to a concentration of 2×10^4 cells/well, and after being cultured for about 20 hours, the cells are left to stand in 80 μL of serum-free Ham's F-12 medium for 15 minutes. A test compound is initially dissolved in DMSO, and then is diluted stepwise with Ham's F-12 containing 100 mmol/L HEPES and 1 mmol/L isobutylmethylxanthine. 20 μL of the dilution is added to the cells. After the cells are cultured for 30 minutes, the medium is removed. 0.3. ml of the Assay/lysis Buffer included in cAMP-Screen kit (manufactured by Applied Biosystems, Inc.) is added to the cells, and the cells are incubated at 37° C. for 30 minutes. The resulting cell lysate is subjected to quantification of cAMP with the cAMP-Screen kit. […] Measurement of Human β2 Adrenergic Receptor Agonist Activity

[4] = Test Example 14: stability in phosphate buffer solution at pH 6.8; format: physicochemical
Description: A test compound is prepared in pure water to be in the saturated state. This solution is shaken for one hour at room temperature. After the shaking, the entire amount of the solution is transferred into a filter tube, and the solution is filtered by centrifugation. The filtrate is analyzed by HPLC immediately after filtration, 24 hours after filtration, and 48 hours after filtration. The stability of the test compound is determined using a calibration curve, based on the peak area value.
Test on Stability in Phosphate Buffer Solution at pH 6.8
The stability of a test compound is determined by performing the same test as that performed in Test Example 13, except that the pure water is changed to a phosphate buffer solution at pH 6.8.

[5] = target: T2, human β3 adrenergic receptor (Homo sapiens, UniProt P13945); experiment: Test Example 1-A: human β3 adrenergic receptor agonist activity (cAMP EIA, transfected CHO cells, 24-well); format: cell-based; conditions: Table 1; for EC50: Test Example 1-A; for β3 receptor I.A.: maximum response to isoproterenol taken as 100%
T2 construct: the full length human β3 gene is obtained from a human genomic library; expressed in transfected cells; host or cells: CHO (Chinese Hamster Ovary) cells, pcDNA3, geneticin selection
Description: Measurement of Human β3 Adrenergic Receptor Agonist Activity
The measurement of human β3 adrenergic receptor agonist activity is carried out using CHO (Chinese Hamster Ovary) cells transfected with pcDNA3 (manufactured by Invitrogen, Inc.) to which human β3 gene has been inserted. […] This human β3 cDNA fragment is used as a probe, and the full length human β3 gene is obtained from a human genomic library (manufactured by Clontech Laboratories, Inc.). The above cells are cultured in Ham's F-12 medium containing 10% fetal bovine serum and 400 μg/ml geneticin (manufactured by Invitrogen, Inc.). These cells are seeded on a 24-well plate to a concentration of 1×10^5 cells/well, and after being cultured for about 20 hours, the cells are left to stand in serum-free Ham's F-12 medium for 2 hours. A test compound is initially dissolved in DMSO, and then is diluted stepwise with Ham's F-12 containing 20 mmol/L HEPES, 1 mmol/L isobutylmethylxanthine, and 1 mmol/L ascorbic acid. The dilution is added to the cells. After the cells are cultured for 30 minutes, and then the medium is removed, followed by addition of 0.1 ml of 1 N NaOH to the cells. The cells are left to stand for 20 minutes, and then are added with 0.1 ml of 1 N acetic acid and are stirred. The resulting cell lysate is centrifuged, and then is subjected to quantification of cAMP with cAMP EIA kit (manufactured by Cayman Chemical Co.).

T2 sequence (P13945 whole entry): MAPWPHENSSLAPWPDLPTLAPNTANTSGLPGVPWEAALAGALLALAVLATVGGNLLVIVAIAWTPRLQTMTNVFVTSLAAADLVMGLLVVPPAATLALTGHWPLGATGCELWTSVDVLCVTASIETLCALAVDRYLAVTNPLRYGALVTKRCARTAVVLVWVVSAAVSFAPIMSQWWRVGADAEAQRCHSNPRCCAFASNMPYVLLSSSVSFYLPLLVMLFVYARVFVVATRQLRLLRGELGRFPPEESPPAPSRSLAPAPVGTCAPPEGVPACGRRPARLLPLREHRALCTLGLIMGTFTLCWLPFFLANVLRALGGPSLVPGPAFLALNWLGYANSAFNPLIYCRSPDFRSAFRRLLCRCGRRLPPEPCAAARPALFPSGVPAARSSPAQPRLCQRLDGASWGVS
T1 sequence (P07550 whole entry): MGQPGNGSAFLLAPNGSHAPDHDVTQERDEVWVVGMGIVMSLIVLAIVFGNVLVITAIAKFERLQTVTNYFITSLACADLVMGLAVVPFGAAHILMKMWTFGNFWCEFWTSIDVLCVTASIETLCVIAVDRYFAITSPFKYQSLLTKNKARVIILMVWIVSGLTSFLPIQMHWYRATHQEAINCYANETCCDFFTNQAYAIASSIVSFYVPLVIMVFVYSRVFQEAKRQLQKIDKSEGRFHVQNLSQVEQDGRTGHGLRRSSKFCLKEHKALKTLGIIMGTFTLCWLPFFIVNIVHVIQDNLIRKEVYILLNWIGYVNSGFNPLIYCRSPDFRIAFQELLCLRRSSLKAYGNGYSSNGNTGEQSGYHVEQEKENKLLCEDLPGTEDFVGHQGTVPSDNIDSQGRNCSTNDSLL

Row | Compound | increase in MBP (%) [1] [%] | solubility at 1 h [2] [µg/mL] | β2 receptor EC50 [3] | Emax [3] [%] | HPLC area percent ([4]; after 24 hours) [%] | HPLC area percent ([4]; after 48 hours) [%] | HPLC area percent ([4]; immediately after filtration) [%] | EC50 [5] [nM] | β3 receptor I.A. [5] [%]
1 | CS(=O)(=O)Nc1cccc([C@@H](O)CNCCOc2ccc3c(C(F)(F)F)n[nH]c3c2)c1 [Example 4, (R)-N-(3-(1-hydroxy-2-(2-(3-trifluoromethylindazol-6-yloxy)ethylamino)ethyl)phenyl)methanesulfonamide] | 3.1 ± 2.1 | 932 (≈ 2030 µM) | a) | 2.4 | 99.6 | 99.6 | 99.6 | – | –
2 | CC(C)c1n[nH]c2cc(OCCNC[C@H](O)c3cccc(NS(C)(=O)=O)c3)ccc12 [Example 1, (R)-N-(3-(1-hydroxy-2-(2-(3-isopropylindazol-6-yloxy)ethylamino)ethyl)phenyl)methanesulfonamide] | 4.7 ± 2.1 | ≥ 1000 | a) | 6.7 | 99.9 | 100 | 99.8 | – | –
3 | CN(C)C(=O)CCc1n[nH]c2cc(OCCNC[C@H](O)c3cccc(NS(C)(=O)=O)c3)ccc12 [Example 5, (R)-3-(6-(2-(2-hydroxy-2-(3-(methylsulfonamido)phenyl)ethylamino)ethoxy)-indazol-3-yl)-N,N-dimethylpropanamide] | 3.4 ± 2.2 | ≥ 1000 | a) | 5.4 | – | – | – | 51 | 75
4 | CCc1n[nH]c2cc(OCCNC[C@H](O)c3ccc(Cl)c(NS(C)(=O)=O)c3)ccc12 [Example 9, (R)-N-(2-chloro-5-(2-(2-(3-ethylindazol-6-yloxy)ethylamino)-1-hydroxyethyl)phenyl)methanesulfonamide] | 1.7 ± 2.7 | – | a) | 8 | – | – | – | – | –
5 | CCc1n[nH]c2cc(OCCNC[C@H](O)c3ccc(F)c(NS(C)(=O)=O)c3)ccc12 [Example 8, (R)-N-(5-(2-(2-(3-ethylindazol-6-yloxy)ethylamino)-1-hydroxyethyl)-2-fluorophenyl)methanesulfonamide] | 0.4 ± 0.5 | – | a) | 11 | – | – | – | – | –
6 | COc1n[nH]c2cc(OCCNC[C@H](O)c3cccc(NS(=O)(=O)c4ccccc4)c3)ccc12 [Example 16, (R)-N-(3-(1-hydroxy-2-(2-(3-methoxyindazol-6-yloxy)ethylamino)ethyl)phenyl)benzenesulfonamide] | 6.6 ± 3.2 | – | a) | 3 | – | – | – | – | –
7 | COCc1n[nH]c2cc(OCCNC[C@H](O)c3cccc(NS(C)(=O)=O)c3)ccc12 [Example 6, (R)-N-(3-(1-hydroxy-2-(2-(3-methoxymethylindazol-6-yloxy)ethylamino)ethyl)phenyl)methanesulfonamide] | 2.8 ± 1.1 | 993 (≈ 2290 µM) | – | – | – | – | – | 7.4 | 82
8 | CCc1n[nH]c2cc(OCCNC[C@H](O)c3cccc(NS(C)(=O)=O)c3)ccc12 [Example 2, (R)-N-(3-(1-hydroxy-2-(2-(3-ethylindazol-6-yloxy)ethylamino)ethyl)phenyl)methanesulfonamide] | 3.1 ± 0.5 | ≥ 1000 | a) | 4.3 | 98.2 | 98.2 | 98.2 | 29 | 77
9 | CS(=O)(=O)Nc1cc([C@@H](O)CNCCOc2ccc3c(C(F)(F)F)n[nH]c3c2)ccc1Cl [Example 11, (R)-N-(2-chloro-5-(1-hydroxy-2-(2-(3-(trifluoromethyl)indazol-6-yloxy)ethylamino)ethyl)phenyl)methanesulfonamide] | 1.8 ± 1.4 | – | a) | 5 | – | – | – | – | –
10 | CCCc1n[nH]c2cc(OCCNC[C@H](O)c3cccc(NS(C)(=O)=O)c3)ccc12 [Example 3, (R)-N-(3-(1-hydroxy-2-(2-(3-propylindazol-6-yloxy)ethylamino)ethyl)phenyl)methanesulfonamide] | 3.4 ± 3.7 | – | a) | 2 | – | – | – | 29 | 77
